Results as given in US20140221490A1, “METHODS OF TREATING PAIN” (Hospira, Inc., priority 2011, published 2014).
“And” between values parts separate entries of the source, which are not always exact repeats. Equal entries are not always repeated.

Key:
Format in all cases: in vivo, human
[1] = system: patients after orthopedic surgery; assay: Orthopedic surgery trial: safety (adverse events)
Method: The diclofenac formulation was Dyloject™. […] Adverse events (adverse effects) were recorded between surgery and randomization, not just after baseline, in order to distinguish treatment-emergent adverse events.
Those who remained at the site longer assessed their pain every 3 hours until discharged. […] Adverse events (AEs) were recorded between surgery and randomization, not just after baseline, in order to distinguish treatment-emergent AEs.

[2] = system: acute moderate to severe pain after abdominal or pelvic surgery; assay: Multiple-dose randomized double-blind active- and placebo-controlled trial after abdominal or pelvic surgery: efficacy (SPID, pain relief, rescue morphine, patient global evaluation)
Method: A 331 multicenter, multiple-dose, multiple-day, randomized, double-blind, parallel-group study was conducted on patients who had undergone abdominal or pelvic surgery. Patients were randomly assigned to 18.75 mg of diclofenac, 37.5 mg of diclofenac, 30 mg ketorolac, or placebo (1:1:1:1 ratio). The diclofenac formulation was Dyloject™. The patients selected for the study had moderate to severe pain within 6 hours postoperatively, defined as pain intensity of at least 50 mm on a 0-100 VAS.
At 16 U.S. sites, adults 18-65 years old were screened if they were scheduled for abdominal or pelvic surgery within 2 weeks. Key inclusion criteria were moderate-to-severe postoperative pain, defined as intensity≧50 mm on a 0-100 mm visual analog scale (VAS) within 6 hours after surgery, and weight>50 kg. Exclusion criteria were applied to the preoperative, intraoperative, and postoperative periods. Key preoperative exclusion criteria were a history of chronic disease or severe asthma, a recent (≦6 months) cardiovascular event or clinically-significant abnormal electrocardiogram (ECG) at screening, consumption of aspirin (except <325 mg/day for antiplatelet cardiac protection), opioids, other NSAIDs, other common analgesics, major and minor tranquilizers, or antihistamines≦24 hours before study drug initiation (except if administered during surgery), consumption of a monoamine oxidase inhibitor, tryptophan, carbamazepine, or valproate≦2 weeks before baseline, any clinically-significant laboratory abnormality, and previous or present peptic ulceration, gastrointestinal (GI) bleeding, or any bleeding diathesis. In addition, long-acting NSAIDs or COX-2 inhibitors were to be discontinued 3 days before surgery. Subjects were also excluded in the event of a known allergy to diclofenac, NSAIDs, morphine, anesthetics, or any excipient of the study preparation, receipt of any other investigational medication within 3 months prior to administration of the study drug, known or suspected alcohol or drug abuse, and unwillingness to remain in the clinical research center for 2 nights or return within 5-9 days for a safety follow-up visit. Female subjects with a positive pregnancy test within 24 hours of surgery or who were lactating at screening were also excluded. Intraoperative exclusion criteria were subcostal incision during surgery and concomitant use of NSAIDs or acetaminophen (other intraoperative medications were not restricted). Subjects with abnormal postoperative baseline ECG were excluded from study participation. In addition, patient-controlled analgesia (PCA) was not permitted before or during study drug dosing. Nitrous oxide and very short-acting barbiturates or benzodiazepines were allowed, provided that there was a ≧1.5-hour washout period before study drug administration, to avoid residual effects on pain intensity assessments. […] Postoperative regional anesthesia was not allowed.
This was a multicenter, multiple-dose, multiple-day, randomized, double-blind, active- and placebo-controlled, parallel-group phase 3 study. […] Assignments were made according to a computer-generated random-number code, and clinical staff and patients were blinded to study drug assignment. The first dose of study medication (1 mL IV bolus) was received by patients in all treatment arms within this first 6-hour period (Table 4).
Administration of the first dose of study drug was taken as time 0, and all subsequent dosing and evaluation time points were in relation to time of first study drug dose. Subsequent injections were received every 6 hours until discharge or until patient withdrawal/discontinuation from the study, due either to an adverse event (AE), inadequate pain control, noncompliance with the study protocol, or at the investigator's discretion. […]

[3] = system: patients after abdominal or pelvic surgery; assay: Abdominal or pelvic surgery trial: safety (adverse events, thrombophlebitis scale)
Method: Patients returned for a safety follow-up 5-9 days after baseline, and received a follow-up telephone call 30 days post-baseline. Safety assessments included physical examinations, laboratory testing, vital signs, 12-lead ECG, and evaluation of thrombophlebitis at the site of study drug injection using a 6-point scale (Table 5 and FIG. 6). AEs were recorded throughout the study.
The proportion of patients reporting ≧30% reduction from baseline in pain intensity was analyzed with the Cochran-Mantel-Haenszel test with center as a stratification variable. Time to meaningful (≧30%) reduction in pain intensity and time to administration of rescue medication were analyzed with Kaplan-Meier survival analysis techniques. Descriptive statistics were used for AEs, laboratory test results, vital signs, thrombophlebitis, and ECG results. Logistic regression was used to estimate the relative risk of cardiovascular events.

[4] = diclofenac n = 145, ketorolac n = 60

In the case of `O=C(c1ccccc1)c1ccc2n1CCC2C(=O)O` (centres unmarked) [Ketorolac, ketorolac tromethamine], the “Acute Renal Failure/Renal Insufficiency” value [1, 4] is reported as 0 n (%), the “Acute Tubular Necrosis” value [1, 4] is reported as 0 n (%) and the Anemia [1, 4] is reported as 9 (15.0%) n (%). For the same molecule, the “Blood creatine phosphokinase (CPK) increase” value [1, 4] was 8 (13.3%) n (%), the Constipation [1, 4] was 6 (10.0%) n (%) and the Contusion [1, 4] was 2 (3.3%) n (%). The Dizziness [1, 4] was 5 (8.3%) n (%), the “Dysuria (burning, difficulty urinating)” value [1, 4] was 1 (1.7%) n (%) and the Epistaxis [1, 4] was 0 n (%). For the same molecule, the Fever/increase body temp. [1, 4] was 5 (8.3%) n (%), the Nausea [1, 4] was 18 (30.0%) n (%) and the “Total Bleeding related adverse events” value [1, 4] was 13 (21.7%) n (%). The “Total GI-Related Adverse Events” value [1, 4] was 24 (40.0%) n (%), the “Total Renal-Related Adverse Events” value [1, 4] was 1 (1.7%) n (%) and the “Urinary Retention” value [1, 4] was 0 n (%). The Vomiting [1, 4] was 6 (10.0%) n (%), the “incidence of bleeding-related adverse effects” value ([1]; in vivo) was 23% and 22% and the “serious cardiovascular event: congestive heart failure” value ([1]; one of 60 patients, not considered treatment-related) was 1.7%. The “Cumulative Amount of Rescue Medication, Mean (SD)” value (“Cumulative Amount … (SD)” below) ([2]; 0 to 24 hours, 30 mg (N = 82)) was 6.7 (7.74) mg, the “Opioid sparing vs. placebo” value ([2]; 0 to 24 hours, 30 mg (N = 82)) was 40% and the “Cumulative Amount … (SD)” value ([2]; 0 to 48 hours, 30 mg (N = 82)) was 8.5 (10.00) mg. The “Opioid sparing vs. placebo” value ([2]; 0 to 48 hours, 30 mg (N = 82)) was 46%, the “Cumulative Amount … (SD)” value ([2]; 0 to 72 hours, 30 mg (N = 82)) was 8.5 (10.04) mg and the “Opioid sparing vs. placebo” value ([2]; 0 to 72 hours, 30 mg (N = 82)) was 47%. For the same molecule, the “Cumulative Amount … (SD)” value ([2]; 0 to 72 hours, 30 mg (N = 82), listed as ketorolac) was 8.5 mg, the “Sum of the Pain Intensity Differences Over 0-48 Hours, Mean” value ([2]; 30 mg (N = 82)) was 1583.2 mm·hours and the “patients with at least a 30% reduction in pain intensity” value ([2]; at 45 minutes after study drug initiation, 30 mg) was 57%. The “patients with ≧30% reduction in pain intensity” value ([2]; during the first 6-hour dosing period, 30 mg) was 76.8%, the “incidence of bleeding-related AEs” value ([3]; 30 mg) was 6.1% and the “incidence of cardiovascular AEs” value ([3]; 30 mg) was 6.1%. For the same molecule, the “incidence of treatment-related AEs” value ([3]; 30 mg) was 23.2%, the “Abdominal Hematoma” value ([3]; 30 mg (n = 82)) was 1 (1.2%) n (%) and the “Bleeding-related AE: Anemia” value ([3]; 30 mg (n = 82)) was 2 (2.4%) n (%). For the same molecule, the “Blood Creatine phosphokinase (CPK) increased” value ([3]; 30 mg (n = 82)) was 12 (14.6%) n (%), the Constipation ([3]; 30 mg (n = 82)) was 8 (9.8%) n (%) and the Diarrhea ([3]; 30 mg (n = 82)) was 6 (7.3%) n (%). For the same molecule, the Flatulence ([3]; 30 mg (n = 82)) was 22 (26.8%) n (%), the Headache ([3]; 30 mg (n = 82)) was 14 (17.1%) n (%) and the Hematoma ([3]; 30 mg (n = 82)) was 0 (0.0%) n (%). The Incision site complication ([3]; 30 mg (n = 82)) was 0 (0.0%) n (%), the “Injection site pain, irritation” value ([3]; 30 mg (n = 82)) was 17 (20.7%) n (%) and the Insomnia ([3]; 30 mg (n = 82)) was 7 (8.5%) n (%). The Nausea ([3]; 30 mg (n = 82)) was 22 (26.8%) n (%), the “Number of patients experiencing ≧1 AE” value ([3]; 30 mg (n = 82)) was 72 (87.8%) n (%) and the Pruritus ([3]; 30 mg (n = 82)) was 3 (3.7%) n (%). The Pyrexia ([3]; 30 mg (n = 82)) was 9 (11.0%) n (%), the “Rectal Hemorrhage” value ([3]; 30 mg (n = 82)) was 1 (1.2%) n (%) and the Tachycardia ([3]; 30 mg (n = 82)) was 4 (4.9%) n (%). For the same molecule, the Thrombophlebitis ([3]; 30 mg (n = 82)) was 6 (7.3%) n (%), the “Total patients with a Bleeding-Related AE” value ([3]; 30 mg (n = 82)) was 5 (6.1%) n (%) and the “Vaginal Hemorrhage” value ([3]; 30 mg (n = 82)) was 0 (0.0%) n (%). The Vomiting ([3]; 30 mg (n = 82)) was 7 (8.5%) n (%), the Wound complication ([3]; 30 mg (n = 82)) was 1 (1.2%) n (%) and the Wound dehiscence ([3]; 30 mg (n = 82)) was 1 (1.2%) n (%). The “Total Patients on Concomitant Anticoagulants with a Bleeding-Related AE” value ([3]; 30 mg, 49 on anticoagulants) was 3 (6.1%) n (%) and the “subjects reporting ≧1 bleeding-related AE among subjects receiving anticoagulants” value ([3]; ketorolac group (3/49), post hoc analysis) was 6.1%.
